Laboratory results as given in patent US20240025893A1, “PYRIMIDINE-AND NITROGEN-CONTAINING BICYCLIC COMPOUND” (Asahi Kasei Pharma Corporation, priority 2020, published 2024).

Key:
[1] = system: LPS-stimulated TNFα production in THP-1 cells; test: LPS-stimulated TNFα production inhibition test using human acute monocytic leukemia cell strain THP-1; format: cell-based; conditions: Homo sapiens, THP-1, 4 h, LPS 2.5 ng/mL, average values
Experimental: By the THP-1 assay, influence of a test compound on the TNFα production induced by LPS stimulation can be evaluated. The THP-1 cells (ATCC, Cat. TIB-202) were inoculated on a 96-well plate at a density of 1×10^5 cells/160 μL/well, a test compound was added in a volume of 20 μL, and the plate was incubated at 37° C. for 1 hour in a 5% CO2 incubator. Then, LPS in a volume of 20 μL (final concentration 2.5 ng/mL, Sigma, Cat. L2630) was added, and the plate was further incubated for 4 hours. After the incubation, the plate was centrifuged, and 100 μL of the supernatant was taken from each well, and used for evaluation of the amount of TNFα using HTRF (Cisbio, Cat. 62TNFPEB). In the measurement of the amount of TNFα, the supernatant was diluted twice with the medium, and then added to wells of a 384-well plate in a volume of 10 μL, then anti-TNFα-cryptate (5 μL), and anti-TNFα-XL665 (5 μL) were added, and the plate was left standing overnight. The fluorescence intensity ratio for the wavelengths of 620 and 665 nm (620 nm/665 nm) was measured with a microplate reader, and the amount of TNFα in the supernatant was calculated by using a calibration curve. The TNFα production suppression ratio observed with no addition of LPS was defined to be 100%, the TNFα production suppression ratio observed with no addition of the test compound was defined to be 0%, and IC50 of the test compound was calculated by using the 4-parameter logistic model of the data analysis software XLfit (ID Business Solutions Ltd.).

human IRAK-4 = human IRAK-4 (Homo sapiens (Human), UniProt Q9NWZ3); test: Measurement of human IRAK-4 inhibitory activity (TR-FRET, peptide substrate phosphorylation, 10 μM ATP); format: biochemical; conditions: 1 nM IRAK-4, 10 μM ATP, 23° C., 30 minutes; average values
Sequence of human IRAK-4 (Q9NWZ3 whole entry): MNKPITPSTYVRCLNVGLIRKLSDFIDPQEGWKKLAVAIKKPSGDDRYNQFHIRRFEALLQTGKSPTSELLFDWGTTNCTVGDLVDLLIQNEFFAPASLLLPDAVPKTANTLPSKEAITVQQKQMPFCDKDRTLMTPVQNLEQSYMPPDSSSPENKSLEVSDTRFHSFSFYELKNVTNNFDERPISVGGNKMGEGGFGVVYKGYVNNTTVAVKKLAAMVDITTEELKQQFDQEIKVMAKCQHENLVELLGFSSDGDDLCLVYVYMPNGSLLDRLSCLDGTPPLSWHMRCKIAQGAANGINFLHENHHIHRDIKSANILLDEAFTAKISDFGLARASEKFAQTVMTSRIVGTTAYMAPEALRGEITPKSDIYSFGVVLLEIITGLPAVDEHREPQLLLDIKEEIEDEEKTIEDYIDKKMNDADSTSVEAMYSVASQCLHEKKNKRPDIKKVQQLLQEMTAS
Experimental: For the measurement of the activity of the human IRAK-4 (Invitrogen, Cat. PV3362), phosphorylation of the IRAK-4 peptide substrate (biotin-KKKKRFSFKKSFKC) by the enzyme in the presence of 10 μM ATP (Sigma-Aldrich, Cat. A7699) was measured by the TR-FRET method. The enzymatic reaction was performed in a reaction buffer containing 50 mM HEPES (pH 7.2), 1 mM DTT, 0.1 mM Na3VO4, 5 mM MgCl2, 1 mM MnCl2, and 0.1% bovine serum albumin. For the measurement of the IRAK-4 inhibitory activity, a test compound was added to the reaction buffer containing 1 nM IRAK-4, 0.5 μM peptide substrate, and 10 μM ATP, and the mixture was incubated at 23° C. for 30 minutes. Then, a detection solution containing an antibody labeled with europium cryptate (0.3 μg/mL, the antibody was prepared by using the IRAK-4 peptide substrate as the antigen), streptavidin-XL665 (2 μg/mL, CisBio, Cat. 610SAXLB), 50 mM HEPES (pH 7.2), 0.1% BSA, 120 mM KF, and 66.7 mM EDTA (all the concentrations of the reagents are final concentrations) was added to terminate the reaction, and then the mixture was further incubated at 23° C. for 60 minutes. Fluorescence intensity was measured at wavelengths of 665 nm and 620 nm with a microplate reader, and the enzymatic activity was calculated as the ratio of fluorescence intensities at 665 nm and 620 nm (665 nm/620 nm).

SMILES	IC50 [1] [nM]	IC50 (human IRAK-4) [nM]
O=C(Nc1nc2ccc(-c3cnc(CO[C@H]4CCC[C@@H]4O)nc3)cc2s1)C1CC(N2CCC(F)CC2)C1 (stereo partly shown) [b-02-11]	152	2.87
O=C(Nc1nc2ccc(-c3cnc(CO[C@H]4CCC[C@@H]4O)nc3)cc2s1)C1CC(N2CC(F)(F)C2)C1 (stereo partly shown) [b-02-12]	170	3.37
O=C(Nc1nc2ccc(-c3cnc(CO[C@H]4CCC[C@@H]4O)nc3)cc2s1)C1CC(N2CCC(F)(F)C2)C1 (stereo partly shown) [b-02-13]	175	3.77
CO[C@H]1CCN(C2CC(C(=O)Nc3nc4ccc(-c5cnc(CO[C@H]6CCC[C@@H]6O)nc5)cc4s3)C2)C1 (stereo partly shown) [b-02-14]	164	2.41
CO[C@@H]1CCN(C2CC(C(=O)Nc3nc4ccc(-c5cnc(CO[C@H]6CCC[C@@H]6O)nc5)cc4s3)C2)C1 (stereo partly shown) [b-02-15]	157	2.25
O=C(Nc1nc2ccc(-c3cnc(CO[C@H]4CCC[C@@H]4O)nc3)cc2s1)C1CC(N2CCC[C@@H](F)C2)C1 (stereo partly shown) [b-02-16]	107	2.01
O=C(Nc1nc2ccc(-c3cnc(CO[C@H]4CCC[C@@H]4O)nc3)cc2s1)C1CC(N2CCC[C@H](F)C2)C1 (stereo partly shown) [b-02-17]	120	1.59
CC1(C)CN(C2CC(C(=O)Nc3nc4ccc(-c5cnc(CO[C@H]6CCC[C@@H]6O)nc5)cc4s3)C2)CCO1 (stereo partly shown) [b-02-18]	164	2.92
C[C@@H]1CN(C2CC(C(=O)Nc3nc4ccc(-c5cnc(CO[C@H]6CCC[C@@H]6O)nc5)cc4s3)C2)C[C@H](C)O1 (stereo partly shown) [b-02-19]	144	2.54
CC[C@H]1COCCN1C1CC(C(=O)Nc2nc3ccc(-c4cnc(CO[C@H]5CCC[C@@H]5O)nc4)cc3s2)C1 (stereo partly shown) [b-02-20]	78	4.28
CC[C@@H]1COCCN1C1CC(C(=O)Nc2nc3ccc(-c4cnc(CO[C@H]5CCC[C@@H]5O)nc4)cc3s2)C1 (stereo partly shown) [b-02-21]	66	2.12
CN1CCN(C2CC(C(=O)Nc3nc4ccc(-c5cnc(CO[C@H]6CCC[C@@H]6O)nc5)cc4s3)C2)CC1 (stereo partly shown) [b-02-22]	208	1.89
O=C(Nc1nc2ccc(-c3cnc(CO[C@H]4CCC[C@@H]4O)nc3)cc2s1)C1CC(N2CCN(CC(F)(F)F)CC2)C1 (stereo partly shown) [b-02-23]	166	2.52
O=C(Nc1nc2ccc(-c3cnc(CO[C@H]4CCC[C@@H]4O)nc3)cc2s1)C1CC(N2CCOCC3(CC3)C2)C1 (stereo partly shown) [b-02-24]	180	1.91
COCCN1CCN(C2CC(C(=O)Nc3nc4ccc(-c5cnc(CO[C@H]6CCC[C@@H]6O)nc5)cc4s3)C2)CC1 (stereo partly shown) [b-02-25]	199	1.98
C[C@H]1CCCN1C1CC(C(=O)Nc2nc3ccc(-c4cnc(CO[C@H]5CCC[C@@H]5O)nc4)cc3s2)C1 (stereo partly shown) [b-02-26]	126	1.75
C[C@@H]1CCCN1C1CC(C(=O)Nc2nc3ccc(-c4cnc(CO[C@H]5CCC[C@@H]5O)nc4)cc3s2)C1 (stereo partly shown) [b-02-27]	159	1.48
O=C(Nc1nc2ccc(-c3cnc(CO[C@H]4CCC[C@@H]4O)nc3)cc2s1)C1CC(N2CCN(C3CC3)CC2)C1 (stereo partly shown) [b-02-28]	103	2.17
O=C(Nc1nc2ccc(-c3cnc(CO[C@H]4CCC[C@@H]4O)nc3)cc2s1)C1CC(NC23CC(C2)C3)C1 (stereo partly shown) [b-02-29]	124	2.43
O=C(Nc1nc2ccc(-c3cnc(CO[C@H]4CCC[C@@H]4O)nc3)cc2s1)C1CC(N2CCOC(C3CC3)C2)C1 (stereo partly shown) [b-02-30]	137	4.12
O=C(Nc1nc2ccc(-c3cnc(CO[C@H]4CCC[C@@H]4O)nc3)cc2s1)C1CC(N2C[C@@H]3C[C@H]2CO3)C1 (stereo partly shown) [b-02-31]	194	2.36
CC(C)[C@H]1COCCN1C1CC(C(=O)Nc2nc3ccc(-c4cnc(CO[C@H]5CCC[C@@H]5O)nc4)cc3s2)C1 (stereo partly shown) [b-02-32]	41	2.37
O=C(Nc1nc2ccc(-c3cnc(CO[C@H]4CCC[C@@H]4O)nc3)cc2s1)C1CC(N2CCOCC23CCC3)C1 (stereo partly shown) [b-02-33]	51	1.63
